“Also recorded” adds a separate entry of the source.
Tested on: lung tumors in Grg1 transgenic mice
Assay: Tumor development in Grg1 transgenic mouse model of non-small cell lung cancer
Type: in vivo
Conditions: for tumors visible on whole lung lobes: 3 month mice after 4 weeks of treatment (FIG. 8); for average number of surface tumors per mouse: abexinostat 12 mg/kg BID i.p., ibrutinib ~22 mg/kg/day in drinking water; for tumor histology in lung tissue sections: 6 month mice after 4 weeks of treatment; for tumors visible on whole left lung lobes: 6 month mice after 4 weeks of treatment (FIG. 7); for average number of large tumors (over 1 mm in diameter) per mouse: 6 month samples, tissue sections of left lung lobe
Procedure: The aim of the experiment is to evaluate the effect of two drugs on tumor development in a mouse model of non-small cell lung cancer.
Grg1 transgenic mice were used to evaluate the drugs. Grg1 transgenic mice overexpress the Groucho-related gene 1 (Grg1). The mice develop lung tumors that resemble human non-small cell lung cancer. Tumors initiate at 1 month of age and progress to invasive adenocarcinoma by 8 months of age. The drugs were administered to 2 month-old mice or to 5 month-old mice, and mice were treated for 4 weeks. The former group is referred to as the 3 month samples and the latter as the 6 month samples.
Mice were bred to generate double transgenic (Grg1/Cre recombinase) mice on a CD1 background. Four groups of female double transgenic mice were established:
At least 8 mice in each group were treated at 2 months old and 8 mice in each group were treated at 5 months old. Treatments lasted 4 weeks, and mice were sacrificed at 3 months and 6 months. Therefore samples are referred to as 3 month samples or 6 month samples.
Abexinostat was administered by intraperitoneal (i.p.) injection, twice per day for five days each week. Mice were weighed and injected with 6 μl per gram body weight of a 1 mg/ml solution. The dosage was 12 mg/kg BID.
Mice were treated for 4 weeks. After treatment, mice were euthanized and lung tissue was examined.
For quantitation of tumors, the total visible tumors on the lung surface were counted using a dissecting microscope. In addition, the left lung lobe was fixed in 4% PFA, paraffin-embedded and 5 μm sections were taken for 100 μm at two levels. The first level began 30 μm below the lung surface and the second level began 130 μm below the lung surface. Alternate slides were H&E stained, and tumors were detected and counted using a dissecting microscope. Tumor diameter was measured using an inverted microscope and reticule.

[1] = 3 month samples: treated 4 weeks from 2 months
[2] = 6 month samples: treated 4 weeks from 5 months

In the case of `CN(C)Cc1c(C(=O)NCCOc2ccc(C(=O)NO)cc2)oc2ccccc12` [Abexinostat, 3-[(dimethylamino)methyl]-N-{2-[4-(hydroxycarbamoyl)phenoxy]ethyl}-1-benzofuran-2-carboxamide], the “tumors visible on whole lung lobes” value is reported as “one small tumor is visible”, the “average number of surface tumors per mouse” value [1] is reported as 3.0 and the “tumor histology in lung tissue sections” value is reported as “high number of apoptotic cells; also recorded: lymphocyte infiltration, necrosis and large areas with apoptotic cells”. The “tumors visible on whole left lung lobes” value was “medium and small tumors are visible”, the “average number of large tumors (over 1 mm in diameter) per mouse” value was 0.5 and the “average number of surface tumors per mouse” value [2] was 4.6.

`C=CC(=O)N1CCC[C@@H](n2nc(-c3ccc(Oc4ccccc4)cc3)c3c(N)ncnc32)C1` [Ibrutinib, (R)-1-(3-(4-amino-3-(4-phenoxyphenyl)-1H-pyrazolo[3,4-d]pyrimidin-1-yl)piperidin-1-yl)prop-2-en-1-one] was tested, and the “tumors visible on whole lung lobes” value was “one small tumor is visible”, the “average number of surface tumors per mouse” value [1] was 2.6 and the “tumor histology in lung tissue sections” value was “lack the high number of apoptotic macrophages; also recorded: less tumor necrosis than the control samples; also recorded: lymphocyte infiltration but not the apoptotic macrophages seen in the control and in Abexinostat-treated mice”. The “tumors visible on whole left lung lobes” value was “medium and small tumors are visible”, the “average number of large tumors (over 1 mm in diameter) per mouse” value was 0.5 and the “average number of surface tumors per mouse” value [2] was 7.6. The “tumor diameter in 6 month sections” value (6 month sections (FIG. 9)) was “no small tumors in Ib-treated sections, just one large tumor”.

— patent publication US9421208B2, “Methods for the treatment of solid tumors” (Pharmacyclics LLC, priority 2013, dated 2016)
